Measured values published in ChEMBL document CHEMBL4602739, “Design and Synthesis of a Trifunctional Molecular System "Programmed" to Block Epidermal Growth Factor Receptor Tyrosine Kinase, Induce High Levels of DNA Damage, and Inhibit the DNA Repair Enzyme (Poly(ADP-ribose) Polymerase) in Prostate Cancer Cells” (J Med Chem, 2020).
Each block holds one compound with its values, some of them ahead of it. Activity calls are given as the source filed them. The calls are words filed in the database; no cut-off is given here.

How the values were obtained:
[1] = biological target: T1, Epidermal growth factor receptor (Homo sapiens, UniProt P00533); test: Inhibition of EGFR in human PC3 cells assessed as reduction in EGF-stimulated EGFR phosphorylation preincubated for 2 hrs followed by EGF stimulation and measured after 30 mins by Western blot analysis; type: cell-based; settings: PC-3
[2] = biological target: T1, Epidermal growth factor receptor; test: Inhibition of EGFR in human PC3 cells assessed as reduction in EGF-stimulated EGFR phosphorylation at <= 1 uM preincubated for 2 hrs followed by EGF stimulation and measured after 30 mins by Western blot analysis relative to control; type: cell-based; settings: PC-3
[3] = biological target: T1, Epidermal growth factor receptor; test: Inhibition of EGFR in human 22Rv1 cells assessed as reduction in EGF-stimulated EGFR phosphorylation preincubated for 2 hrs followed by EGF stimulation and measured after 30 mins by Western blot analysis; type: cell-based; settings: CWR22R
[4] = biological target: T1, Epidermal growth factor receptor; test: Inhibition of EGFR in human 22Rv1 cells assessed as reduction in EGF-stimulated EGFR phosphorylation at <= 1 uM preincubated for 2 hrs followed by EGF stimulation and measured after 30 mins by Western blot analysis relative to control; type: cell-based; settings: CWR22R
[5] = biological target: T1, Epidermal growth factor receptor; test: Inhibition of recombinant human N-terminal GST-tagged EGFR (668 to end residues) expressed in baculovirus infected Sf9 insect cells assessed as reduction in […] EGFR phosphorylation […] by TMB peroxidase substrate based assay
[6] = biological target: T1, Epidermal growth factor receptor; test: Inhibition of EGFR in human PC3 cells assessed as reduction in EGF-stimulated ERK phosphorylation at 0.1 to 100 uM preincubated for 2 hrs followed by EGF stimulation and measured after 30 mins by Western blot analysis; type: cell-based; settings: PC-3
[7] = biological target: T1, Epidermal growth factor receptor; test: Inhibition of EGFR in human PC3 cells assessed as reduction in EGF-stimulated AKT phosphorylation at 0.1 to 100 uM preincubated for 2 hrs followed by EGF stimulation and measured after 30 mins by Western blot analysis; type: cell-based; settings: PC-3
[8] = Selectivity ratio of IC50 for EGFR (unknown origin) transfected in mouse NIH/3T3 cells to IC50 for EGFR in mouse NIH/3T3 cells; type: cell-based
[9] = test system: DNA; test: Induction of DNA damage in human PC3 cells measured after 2 to 24 hrs by alkaline commet assay; type: cell-based; settings: PC-3
[10] = test system: DNA; test: Induction of DNA damage in human 22Rv1 cells measured after 2 to 24 hrs by alkaline commet assay; type: cell-based; settings: CWR22R
[11] = test system: DNA; test: Induction of DNA damage in human PC3 cells at 12.5 uM measured after 2 to 24 hrs by alkaline commet assay relative to busulfan; type: cell-based; settings: PC-3
[12] = test system: DNA; test: Induction of DNA damage in human 22Rv1 cells at 12.5 measured after 2 to 24 hrs by alkaline commet assay relative to busulfan; type: cell-based; settings: CWR22R
[13] = test system: DNA; test: Induction of DNA damage in human PC3 cells assessed as increase in gammaH2AX phosphorylation up to 20 uM measured after 48 hrs by Western blot analysis; type: cell-based; settings: PC-3
[14] = test system: DNA; test: Induction of DNA damage in human 22Rv1 cells assessed as increase in gammaH2AX phosphorylation up to 20 uM measured after 48 hrs by Western blot analysis; type: cell-based; settings: CWR22R
[15] = test system: PC-3; test: Inhibition of PARP in human PC3 cells assessed as reduction in auto-PARylation up to 20 uM measured after 48 hrs by Western blot analysis; type: cell-based
[16] = test system: CWR22R; test: Inhibition of PARP in human 22Rv1 cells assessed as reduction in auto-PARylation up to 20 uM measured after 48 hrs by Western blot analysis; type: cell-based
[17] = species on record: Homo sapiens; test: Selectivity ratio of IC50 for BRCA mutant (unknown origin) expressed in Cricetulus griseus VCA cells to IC50 for BRCA (unknown origin) expressed in Cricetulus griseus VCA cells; type: cell-based
[18] = test system: CWR22R; test: Growth inhibition of human 22Rv1 cells after 5 days by SRB assay; type: functional, cell-based; settings: 22Rv1, 120 h
[19] = test system: PC-3; test: Growth inhibition of human PC3 cells after 5 days by SRB assay; type: functional, cell-based; settings: PC-3, 120 h
[20] = test system: DU-145; test: Growth inhibition of human DU145 cells after 5 days by SRB assay; type: functional, cell-based; settings: DU-145, 120 h
[21] = Drug uptake in human 22Rv1 cells at 25 uM measured up to 6 hrs by LC-MS/MS analysis; type: ADME, cell-based; settings: cwr22r
[22] = Drug uptake in human 22Rv1 cells assessed as drug accumulation in perinuclear region at 10 uM measured after 2 hrs by confocal laser scanning microscopic analysis; type: ADME, cell-based; settings: cwr22r
[23] = Induction of 2'-Deoxyguanosine depurination at 0.1 mM measured after 24 hrs by LC-MS analysis; settings: 100 µM
[24] = test system: PC-3; test: Inhibition of PARP in human PC3 cells assessed as reduction in auto-PARylation at 10 uM measured after 48 hrs by Western blot analysis; type: cell-based
[25] = test system: CWR22R; test: Inhibition of PARP in human 22Rv1 cells assessed as reduction in auto-PARylation at 10 uM measured after 48 hrs by Western blot analysis; type: cell-based

T1 sequence (P00533 whole entry): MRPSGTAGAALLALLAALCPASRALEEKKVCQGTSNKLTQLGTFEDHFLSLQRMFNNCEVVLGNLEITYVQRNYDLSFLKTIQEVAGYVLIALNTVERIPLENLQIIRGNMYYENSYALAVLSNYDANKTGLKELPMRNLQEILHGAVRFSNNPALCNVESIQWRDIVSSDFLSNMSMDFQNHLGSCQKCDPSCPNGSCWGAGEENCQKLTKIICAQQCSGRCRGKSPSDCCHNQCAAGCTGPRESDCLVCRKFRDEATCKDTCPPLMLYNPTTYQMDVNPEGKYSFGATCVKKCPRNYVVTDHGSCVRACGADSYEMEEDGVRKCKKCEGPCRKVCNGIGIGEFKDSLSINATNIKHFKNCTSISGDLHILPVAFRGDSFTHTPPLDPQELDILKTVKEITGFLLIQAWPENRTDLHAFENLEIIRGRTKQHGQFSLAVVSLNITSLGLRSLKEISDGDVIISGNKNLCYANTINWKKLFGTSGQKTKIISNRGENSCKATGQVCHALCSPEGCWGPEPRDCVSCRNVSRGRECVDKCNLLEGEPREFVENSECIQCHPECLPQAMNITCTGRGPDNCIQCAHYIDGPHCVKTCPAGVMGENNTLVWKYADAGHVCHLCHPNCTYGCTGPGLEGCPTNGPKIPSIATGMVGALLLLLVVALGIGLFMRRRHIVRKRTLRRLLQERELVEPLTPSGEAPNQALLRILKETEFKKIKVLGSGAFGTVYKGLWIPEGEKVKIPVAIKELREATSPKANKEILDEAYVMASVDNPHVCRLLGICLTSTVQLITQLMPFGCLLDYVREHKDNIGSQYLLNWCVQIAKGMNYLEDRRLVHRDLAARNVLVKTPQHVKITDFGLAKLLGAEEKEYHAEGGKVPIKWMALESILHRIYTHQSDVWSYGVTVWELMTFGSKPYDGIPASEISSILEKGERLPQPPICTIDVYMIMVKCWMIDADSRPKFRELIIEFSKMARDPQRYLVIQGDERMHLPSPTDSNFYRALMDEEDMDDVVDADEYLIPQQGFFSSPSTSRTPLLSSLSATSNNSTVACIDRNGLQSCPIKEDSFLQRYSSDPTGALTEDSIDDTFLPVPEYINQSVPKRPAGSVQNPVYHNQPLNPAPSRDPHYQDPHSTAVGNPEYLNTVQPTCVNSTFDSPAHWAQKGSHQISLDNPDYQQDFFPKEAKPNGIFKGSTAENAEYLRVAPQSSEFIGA

inhibition [1]: Dose-dependent effect
inhibition [2]: 34 to 45%
inhibition [3]: Dose-dependent effect
inhibition [4]: 34 to 45%
IC50 [5]: 0.326 µM
inhibition [6]: Active
inhibition [7]: Active
IC50 [19]: 3 µM
IC50 [20]: 3.2 µM
Drug uptake [21]: Active
Drug uptake [22]: Active
Drug metabolism [23]: Metabolite_Detected
Structure (SMILES): CN(CCOS(=O)(=O)CCc1cn(CCCC(=O)N2CCN(C(=O)c3cc(Cc4n[nH]c(=O)c5ccccc45)ccc3F)CC2)nn1)c1ccc2ncnc(Nc3cccc(Br)c3)c2c1
Ratio IC50 [8]: 7
Activity [9]: Dose-dependent effect
Activity [10]: Dose-dependent effect
fold change (FC) [11]: 3 to 6
fold change (FC) [12]: 3 to 6
Activity [13]: Active
Activity [14]: Active
inhibition [15]: Active
inhibition [16]: Active
Ratio IC50 [17]: 3 to 4
IC50 [18]: 1.9 µM

IC50 [19]: 20.6 µM
IC50 [20]: 17.7 µM
Structure (SMILES): O=C(c1cc(Cc2n[nH]c(=O)c3ccccc23)ccc1F)N1CCN(C(=O)C2CC2)CC1 [OLAPARIB]
inhibition [24]: Active
inhibition [25]: Active
IC50 [18]: 33.8 µM

IC50 [19]: 36.2 µM
IC50 [20]: 25.8 µM
Structure (SMILES): CS(=O)(=O)OCCCCOS(C)(=O)=O [BUSULFAN]
IC50 [18]: 24.3 µM
